Patent publication US11117907B2, “Curcuminoid-inspired synthetic compounds as anti-tumor agents” (University of North Florida Board of Trustees, priority 2017, dated 2021)
Read-outs that look alike come from different tables or passages of the source.

Tests used:
[1] = system: MDA231; experiment: In vitro cell viability bioassay, MTT, MDA231; format: cell-based, human
Protocol: (§1) To evaluate the cell growth inhibitory and apoptosis inducing effects of the fluorinated curcuminoids and their BF2 adducts, in-vitro bioassay tests were performed on […] different cancer cell lines namely: MOLT-4 (human leukemia suspension cancer cell line), PC3 and LNCap (human […] prostate cancer cell lines respectively), A549 (lung cancer), and MDA231 (breast cancer), and the results are sketched in Table 3.
(§2) The cell viability/anti-proliferative activity of the curcuminoids against PC3 (human androgen-insensitive prostate cancer cell line), LNCap (human-androgen sensitive prostate cancer cell line), A549 (lung cancer), and MDA231 (breast cancer) were determined by means of 3-(4,5-dimethyl-2-thiazolyl)-2,5-diphenyl-2H-tetrazolium bromide (MTT) assay (the tetrazolium salt was a commercial sample). (R. N. Khaybullin, et al., Molecules, 2014, 19, 18676-18689). The ability of the curcuminoids to affect proliferations of suspension cell lines (MOLT-4) was tested by the CellTiter-Glo® Luminescent Cell Viability Assay (purchased from Promega Madison, Wis., USA) to determine the number of viable cells in culture based on quantitation of the ATP present. The IC50 values were obtained from fitting data with GraphPad software to determine the growth inhibition in the presence of test compounds. (R. N. Khaybullin, et al., Molecules, 2014, 19, 18676-18689).

[2] = system: LNCap; experiment: In vitro cell viability bioassay, MTT, LNCap; format: cell-based; conditions: Homo sapiens, MTT assay, read-out: Prostate Cancer IC50 (μM) LNCap
Protocol: as §1, §2

[3] = system: A549; experiment: In vitro cell viability bioassay, MTT, A549; format: cell-based; conditions: Homo sapiens, MTT assay, read-out: Lung Cancer IC50 (μM) A549
Protocol: as §1, §2

[4] = system: PC3; experiment: In vitro cell viability bioassay, MTT, PC3; format: cell-based; conditions: Homo sapiens, PC-3; MTT assay; read-out: Prostate Cancer IC50 (μM) PC3
Protocol: as §1, §2

[5] = system: MOLT-4; experiment: In vitro cell viability bioassay, CellTiter-Glo, MOLT-4; format: cell-based, human
Protocol: as §1, §2

[6] = system: RPMI-8226; experiment: Apoptosis (annexin-V/PI flow cytometry), RPMI-8226; format: cell-based, human; conditions: 2.5 uM, 24 h
Protocol: (§3) Apoptotic cell death in multiple myeloma (MM) cancer cell lines (RPMI-8226, KMS-11, MM1.S) as well as peripheral blood mononuclear cells (PBMCs) from healthy donors that were exposed to various concentrations of (A) CUR-analog 1 (Indole-4 CUR—BF2) and (B) CUR-analog 2 (Indole-5 CUR) or (C) the FDA-approved Bcl-2 inhibitor (venetoclax, used for comparison) was assessed.
(§4) Cell lines and PBCMs (peripheral blood mononuclear cells from healthy donors as non-cancer CONTROL) were seeded in quadruplicate (technical replicates). CellTiter-Glo® 2.0 reagent equal to the volume of cell culture medium present in each well was added and the plate was left to incubate at room temperature for 10 minutes to stabilize the luminescent signal. Luminescent signal/intensity from the 384-well plate was read on a plate reader. Cells/cell lines used: BCWM.1 (Waldenstrom macroglobulinemia cell line, WM); RPMI-8266 (Multiple myeloma cell line, MM); RS4; 11 (Acute lymphoblastic leukemia, ALL). For Apoptosis study cells were treated with the indicated agents and concentrations (FIG. 74) for 24 h and stained with annexin-V and propidium iodide (PI), followed by flow cytometry analysis.

[7] = system: PBMCs; experiment: Apoptosis (annexin-V/PI flow cytometry), healthy donor PBMCs; format: cell-based, human
Protocol: as §3, §4

[8] = system: MM cell lines (MM1.S, KMS11, RPMI-8226); experiment: Cell proliferation and viability in multiple myeloma cell lines (CellTiter Glo 2.0, 72 h); format: cell-based, human; conditions: read-out: median IC50 concentration in MM cell lines
Protocol: Cell proliferation and viability were determined in multiple myeloma (MM) cancer cell lines (RPMI-8226, KMS-11, MM1.S) as well as in peripheral blood mononuclear cells (PBMCs) from healthy donors that were exposed to various concentrations of (A) CUR-analog 1 (3-BF2) and (B) CUR-analog 2 (CUR 2) for 72 hours using the CellTiter Glo 2.0 assay.
as §4

[9] = system: KMS-11; experiment: Apoptosis (annexin-V/PI flow cytometry), KMS-11; format: cell-based, human
Protocol: as §3, §4

[10] = system: MM1.S; experiment: Apoptosis (annexin-V/PI flow cytometry), MM1.S; format: cell-based, human
Protocol: as §3, §4

[11] = system: NCI-60 human tumor cell lines; experiment: NCI-60 one-dose screening (10^−5 M); format: cell-based
Source text: The CUR—BF2 adducts 5, 10, and 19, the (CF3)2—CUR 20 and the (CF3)2—CUR—BF2 adduct 21 of FIG. 2 were screened at the National Cancer Institute using NCI-60 cell one-dose protocol (10^−5 M).
(§5) Samples were submitted to the National Cancer Institute (NCI of NIH) Developmental Therapeutics anticancer screening program (DTP) for human tumor cell line assay by NCI-60 screening against leukemia, lung, colon, and CNS cancers, as well as melanoma, ovarian, renal, prostate, and breast cancers. Compounds are initially tested at a single dose of 10-5 molar. Data are reported as mean graph of percent growth (GP). Growth inhibition is shown by values between 0 and 100 and lethality by values less than zero. Compounds that meet selection criteria based on one-dose assay are then tested against 60 cell panel at five concentrations.
as §5, with “NCI-60 assay: Samples” for “Samples”, “10^−5” for “10-5”
as §5, with “NCI-60 assay: samples” for “Samples”, “10^−5” for “10-5”, “(GP). Selected data output are shown in SI file.” for “(GP).”, “represented” for “shown”, “zero.” for “zero. Compounds that meet selection criteria based on one-dose assay are then tested against 60 cell panel at five concentrations.”

[12] = system: MM cell lines; experiment: Apoptosis (annexin-V/PI flow cytometry), median over MM cell lines; format: cell-based, human; conditions: 1.25, 2.5, 5 uM and 10 uM
Protocol: as §3, with “assessed. Bar graphs show % of apoptotic cells (annexin-V+PI positive cells) normalized to basal apoptosis observed in control (DMSO-treated) cells.” for “assessed.”
In contrast, in KMS11 and MM1.S cells, notable apoptosis (54% and 15%, respectively) was seen only at a 10 uM concentration.
as §4, with “For Apoptosis study cells were treated with the indicated agents and concentrations (FIG. 74) for 24 h and stained with annexin-V and propidium iodide (PI), followed by flow cytometry analysis.” left out

[13] = system: Various cancer cell lines; experiment: Cancer cell line growth at 1×10^−5 M curcuminoid; format: cell-based; conditions: all cancer cell lines
Protocol: Various cancer cell lines were seeded into 384-well culture plates at 2×10^3 cell/well and incubated at 5% CO2, 37° C. The culture media was replaced with 1×10^−5 M of curcuminoid; 1,7-bis(2,3,6-trimethoxyphenyl)hepta-1,4,6-triene-3,5-dione, 7-bis(3-benzothiophene)hepta-1,4,6-triene-3,5-dione, or D-793176. The cell line growth was measured.

[14] = Table 4, repeats Table 3, read-out: IC50 MDA231 (Breast cancer)
[15] = Homo sapiens, MDA-MB-231, Table 4, repeats Table 3, read-out: IC50 MDA231 (Breast cancer)
[16] = Homo sapiens, MDA-MB-231, MTT assay, read-out: Breast Cancer IC50 (μM) MDA231
[17] = Homo sapiens, MOLT-4, CellTiter-Glo Luminescent Cell Viability Assay, read-out: Leukemia IC50 (μM) MOLT-4
[18] = Table 5, repeats Table 3, read-out: Leukemia MOLT-4 IC50

Molecule `COc1ccc(/C=C/C(=O)C=C(O)/C=C/c2ccc(OC)c(OC)c2)cc1OC` [drawing 70] has an IC50 [1, 14] of 0.28 µM.
Molecule `COc1cc(F)c(/C=C/C2=CC(/C=C/c3cc(OC)c(OC)cc3F)=[O+][B-](F)(F)O2)cc1OC` [drawing 72] has an IC50 [1, 14] of 1.7 µM.
In the case of `COc1cc(/C=C/C(=O)C(F)(F)C(=O)/C=C/c2ccc(OC)c(OC)c2)ccc1O`, the IC50 [1, 15] is reported as 2.2 µM.
`COc1ccc(/C=C/C(=O)C(F)=C(O)/C=C/c2ccc(OC)c(OC)c2)cc1OC` [drawing 69] showed an IC50 [1, 14] of 0.023 µM.
For `COc1cc(/C=C/C(=O)CC(=O)/C=C/c2ccc(O)c(OC)c2)ccc1O` [compound 1 of FIG. 2, curcumin], the IC50 [2] was 9.7 µM, the IC50 [1, 16] was 11.5 µM and the IC50 [3] was 18 µM. It also gave an IC50 [4] of 9 µM and an IC50 [5, 17] of 19 µM.
In the case of `Fc1ccc(/C=C/C2=CC(/C=C/c3ccc(F)cc3)=[O+][B-](F)(F)O2)cc1`, the IC50 [1, 14] is reported as 1 µM.
With `COc1cc(F)c(/C=C/C2=CC(/C=C/c3cc(OC)c(OC)cc3F)=[O+][B-](F)(F)O2)cc1OC` [drawing 86] the IC50 [5, 18] was 0.01 µM.
Molecule `COc1ccc(/C=C/C2=CC(/C=C/c3ccc(OC)c(OC)c3)=[O+][B-](F)(F)O2)cc1OC` [drawing 73] has an IC50 [1, 14] of 2 µM.
In the case of `F[B-]1(F)OC(/C=C/c2cccc3[nH]ccc23)=CC(/C=C/c2cccc3[nH]ccc23)=[O+]1` [3-BF2, Indole-4-Curcuminoid-BF2 adduct], the “apoptosis, RPMI-8226” value [6] is reported as 60%, the “apoptosis, healthy donor PBMCs” value ([7]; […] and 2.5 uM, 24 h) is reported as 23-28% and the IC50 [8] is reported as 2100 nM. The “apoptosis, KMS-11” value ([9]; 2.5 uM, 24 h) was 79% and the “apoptosis, MM1.S” value ([10]; 2.5 uM, 24 h) was 47%.
In the case of `F[B-]1(F)OC(/C=C/c2csc3ccccc23)=CC(/C=C/c2csc3ccccc23)=[O+]1` [7-BF2, Benzothiophene-3-Curcuminoid-BF2 adduct], the “anti-proliferative activity by the NCI-60 in-vitro assay” value ([11]; 10^−5 molar, Example 5) is reported as “notable anti-proliferative activity”.
In the case of `O=C(/C=C/c1ccc(SC(F)(F)F)cc1)/C=C(O)\C=C\c1ccc(SC(F)(F)F)cc1` [compound 19 of FIG. 35, (1E,4E,6E)-5-Hydroxy-1,7-bis(4-trifluoromethylthiophenyl)hepta-1,4,6-trien-3-one], the “anti-proliferative potency against HCT-116” value ([11]; dose mean graph, FIG. 22) is reported as “high anti-proliferative potency”.
With `CC1(C)CCC(CN2CCN(c3ccc(C(=O)NS(=O)(=O)c4ccc(NCC5CCOCC5)c([N+](=O)[O-])c4)c(Oc4cnc5[nH]ccc5c4)c3)CC2)=C(c2ccc(Cl)cc2)C1` [Venetoclax, reference compound] the “cell death in healthy donor PBMCs” value ([7]; 1.25, 2.5, 5 uM and 10 uM) was ~10% and the “median apoptosis, MM cell lines” value [12] was 15%.
“(1E,4E,6E)-5-Hydroxy-1,7-bis(indole-5)hepta-1,4,6-trien-3-one [compound 2 of Example 5]” was tested, and the “apoptosis, RPMI-8226” value [6] was 65%, the “apoptosis, KMS11” value ([9]; 10 uM) was 54% and the “apoptosis, MM1.S” value ([10]; 10 uM) was 15%.
`COc1ccc(/C=C/C(=O)C(F)=C(O)/C=C/c2ccc(OC)c(OC)c2)cc1OC` [drawing 85] was tested, and the IC50 [5, 18] was 0.076 µM.
With “1,7-bis(2,3,6-trimethoxyphenyl)hepta-1,4,6-triene-3,5-dione” the “cell line growth relative to non-treated cells” value [13] was ≤ 50%.
With `O=C(/C=C/c1ccc(F)cc1)C(F)(F)C(=O)/C=C/c1ccc(F)cc1` [compound 12] the IC50 [2] was 29.2 µM, the IC50 [1, 16] was 6.7 µM and the IC50 [5, 17] was 1.32 µM.
With `O=C(/C=C/c1ccc(F)cc1)C(F)=C(O)/C=C/c1ccc(F)cc1` the IC50 [1, 14] was 12 µM.
In the case of `COc1ccc(/C=C/C2=CC(/C=C/c3ccc(OC)c(OC)c3)=[O+][B-](F)(F)O2)cc1OC` [drawing 84], the IC50 [5, 18] is reported as 0.00056 µM.
Molecule `COc1cc(/C=C/C(=O)C(F)=C(O)/C=C/c2ccc(O)c(OC)c2)ccc1O` has an IC50 [1, 14] of 6.2 µM.
For `O=C(/C=C/c1ccc(F)cc1)C(F)(F)C(=O)/C=C/c1ccc(F)cc1` [drawing 77], the IC50 [1, 15] was 6.7 µM.
`COc1cc(/C=C/C(=O)C=C(O)/C=C/c2ccc(O)c(OC)c2)ccc1O` [drawing 82] was tested, and the IC50 [5, 18] was 19 µM.
For `F[B-]1(F)OC(/C=C/c2ccc(C(F)(F)F)cc2)=CC(/C=C/c2ccc(C(F)(F)F)cc2)=[O+]1`, the NCI-60 cell screening ([11]; words in the IC50 MDA231 column of Table 4) was “NCI-60 cell screening modest activity”.
`COc1ccc(/C=C/C(=O)C=C(O)/C=C/c2ccc(OC)c(OC)c2)cc1OC` [drawing 83] showed an IC50 [5, 18] of 0.043 µM.
In the case of `COc1cc(/C=C/C(=O)C=C(O)/C=C/c2ccc(O)c(OC)c2)ccc1O` [drawing 75], the IC50 [1, 14] is reported as 11.5 µM.
